One data set has as its system insect bites. Particulars: DEET at 100%; cited from earlier work.
A short description of data set [1]: Water solubility of core solvents. The format is physicochemical.
For data set [2] the following is noted: cited from earlier work; for δD: Hansen dispersion value; for δH: Hansen h-bonding value; for δP: Hansen polar value.

≈ marks a conversion by molar mass, not a printed value. Bounds are passed on as bounds.

Take `CCN(CC)C(=O)c1cccc(C)c1` [DEET, N,N-Diethyl-meta-toluamide]: the “hours of protection against insect bites” value in the data set with insect bites was “up to 12 hours”.

As to `CCCCCCCCCCCCCC(=O)OC(C)C` [isopropyl myristate], the solubility in data set [1] was less than 0.0001 mg/mL. Moreover, in data set [2], the δD is given as 16, the δH is 2.7 and the δP is listed as 2.1.

`CC(=O)OCC(COC(C)=O)OC(C)=O` [triacetin] displayed a solubility in data set [1] of 21.5 mg/mL (≈ 98.6 mM). In addition, in data set [2], the δD is 16.4, the δH was 9.6 and the δP is 5.7.

The record behind these values is patent US20190184364A1, “FRAGRANCE COMPOSITIONS CONTAINING MICROCAPSULES” (INTERNATIONAL FLAVORS & FRAGRANCES INC., priority 2016, published 2019).
